Results reported in PubChem BioAssay (NCI).
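All cell lines were grown in 96-well plates and treated with compound for 48 hours. TGI marks complete inhibition of growth.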

Columns and labels:
Experiment in all cases: NCI tumour cell line growth inhibition, 48 h
K-562 leukemia = system: K-562 leukemia
HT29 colon = system: HT29 colon
TK-10 renal = system: TK-10 renal
DU-145 prostate = system: DU-145 prostate
HCC-2998 colon = system: HCC-2998 colon
786-0 renal = system: 786-0 renal
NCI-H460 lung = system: NCI-H460 lung
MALME-3M melanoma = system: MALME-3M melanoma
SK-MEL-5 melanoma = system: SK-MEL-5 melanoma
MDA-MB-231 breast = system: MDA-MB-231 breast
LOX IMVI melanoma = system: LOX IMVI melanoma
SK-MEL-28 melanoma = system: SK-MEL-28 melanoma
NCI/ADR-RES ovarian = system: NCI/ADR-RES ovarian
IGROV1 ovarian = system: IGROV1 ovarian
HOP-92 NSCLC = system: HOP-92 NSCLC
UO-31 renal = system: UO-31 renal
CCRF-CEM leukemia = system: CCRF-CEM leukemia
SN12C renal = system: SN12C renal
HL-60(TB) leukemia = system: HL-60(TB) leukemia
HCT-116 colon = system: HCT-116 colon
MDA-N = system: MDA-N
OVCAR-8 ovarian = system: OVCAR-8 ovarian
HOP-62 NSCLC = system: HOP-62 NSCLC
SF-295 CNS = system: SF-295 CNS
RPMI-8226 leukemia = system: RPMI-8226 leukemia
NCI-H226 lung = system: NCI-H226 lung
SK-OV-3 ovarian = system: SK-OV-3 ovarian
NCI-H522 lung = system: NCI-H522 lung
SW-620 colon = system: SW-620 colon
OVCAR-3 ovarian = system: OVCAR-3 ovarian
OVCAR-5 ovarian = system: OVCAR-5 ovarian
MDA-MB-435 = system: MDA-MB-435
COLO 205 colon = system: COLO 205 colon
CAKI-1 renal = system: CAKI-1 renal
A549 NSCLC = system: A549 NSCLC
HCT-15 colon = system: HCT-15 colon
BT-549 breast = system: BT-549 breast
EKVX NSCLC = system: EKVX NSCLC
SF-539 CNS = system: SF-539 CNS
PC-3 prostate = system: PC-3 prostate
UACC-257 melanoma = system: UACC-257 melanoma
MOLT-4 leukemia = system: MOLT-4 leukemia
SR leukemia = system: SR leukemia
U251 CNS = system: U251 CNS
ACHN renal = system: ACHN renal
M14 melanoma = system: M14 melanoma
SF-268 CNS = system: SF-268 CNS
SNB-75 CNS = system: SNB-75 CNS
SK-MEL-2 melanoma = system: SK-MEL-2 melanoma
OVCAR-4 ovarian = system: OVCAR-4 ovarian
UACC-62 melanoma = system: UACC-62 melanoma
NCI-H23 lung = system: NCI-H23 lung
RXF 393 renal = system: RXF 393 renal
A498 renal = system: A498 renal
MCF7 breast = system: MCF7 breast
HS 578T breast = system: HS 578T breast
KM12 colon = system: KM12 colon
T-47D breast = system: T-47D breast
SNB-19 CNS = system: SNB-19 CNS

CC12CCCCC1=C(F)C(F)(F)S2 (centres undefined)
TGI (K-562 leukemia): 59.2 µM | TGI (HT29 colon): 56.5 µM | TGI (TK-10 renal): 69.9 µM | TGI (DU-145 prostate): > 100 µM | TGI (HCC-2998 colon): > 86.5 µM | TGI (786-0 renal): 45.9 µM | TGI (NCI-H460 lung): > 100 µM | TGI (MALME-3M melanoma): 58.6 µM | TGI (SK-MEL-5 melanoma): > 91.1 µM | TGI (MDA-MB-231 breast): > 100 µM | TGI (LOX IMVI melanoma): 82.6 µM | TGI (SK-MEL-28 melanoma): 78.2 µM | TGI (NCI/ADR-RES ovarian): > 100 µM | TGI (IGROV1 ovarian): > 100 µM | TGI (HOP-92 NSCLC): > 67.9 µM | TGI (UO-31 renal): 24.4 µM | TGI (CCRF-CEM leukemia): 22.7 µM | TGI (SN12C renal): > 75.2 µM | TGI (HL-60(TB) leukemia): 15.3 µM | TGI (HCT-116 colon): 58.5 µM | TGI (MDA-N): > 46.4 µM | TGI (OVCAR-8 ovarian): 77.3 µM | TGI (HOP-62 NSCLC): > 100 µM | TGI (SF-295 CNS): > 71.4 µM | TGI (RPMI-8226 leukemia): 37.7 µM | TGI (NCI-H226 lung): > 100 µM | TGI (SK-OV-3 ovarian): > 100 µM | TGI (NCI-H522 lung): 45.3 µM | TGI (SW-620 colon): > 73.7 µM | TGI (OVCAR-3 ovarian): 48 µM | TGI (OVCAR-5 ovarian): 97.7 µM | TGI (MDA-MB-435): > 86.6 µM | TGI (COLO 205 colon): 40.2 µM | TGI (CAKI-1 renal): 48.9 µM | TGI (A549 NSCLC): > 100 µM | TGI (HCT-15 colon): 76.7 µM | TGI (BT-549 breast): 43 µM | TGI (EKVX NSCLC): > 100 µM | TGI (SF-539 CNS): > 100 µM | TGI (PC-3 prostate): > 87.2 µM | TGI (UACC-257 melanoma): 51.6 µM | TGI (MOLT-4 leukemia): 36 µM | TGI (SR leukemia): 28 µM | TGI (U251 CNS): > 100 µM | TGI (ACHN renal): 51.6 µM | TGI (M14 melanoma): > 83.6 µM | TGI (SF-268 CNS): > 100 µM | TGI (SNB-75 CNS): > 100 µM | TGI (SK-MEL-2 melanoma): > 100 µM | TGI (OVCAR-4 ovarian): > 100 µM | TGI (UACC-62 melanoma): > 100 µM | TGI (NCI-H23 lung): > 100 µM | TGI (RXF 393 renal): > 51.8 µM | TGI (A498 renal): > 100 µM | TGI (MCF7 breast): > 79.6 µM | TGI (HS 578T breast): > 80.7 µM | TGI (KM12 colon): > 100 µM | TGI (T-47D breast): 74.5 µM | TGI (SNB-19 CNS): > 100 µM
